Source: patent US20250213545A1 (AJOU UNIVERSITY INDUSTRY-ACADEMIC COOPERATION FOUNDATION, priority 2022, published 2025)

Assays:
[1] = test system: Parkinson's disease model (6-OHDA model) mice; test: Pole test (landing time); format: in vivo, C57BL/6 mice; details: 20 mg/kg orally once a day
Method: (§1) Specifically, 8-week-old C57BL/6 mice (Daehan Biolink, Eumseong, North Chungcheong Province, Korea) were anesthetized by intraperitoneal (i.p.) injection of 200 mg/kg of 2,2,2-tribromoethanol (Sigma-Aldrich), and they were placed in a stereotaxic apparatus (David Kopf Instruments, Tujunga, CA, USA) equipped With a mouse adapter. Using a Hamilton syringe (Hamilton, Bonaduz, Switzerland), 2 μL of 6-OHDA-HCl solution (2 mg/mL) (Sigma Aldrich) in 0.02% ascorbic acid was injected into the right striatum at the following stereotactic coordinates (mm from the bregma): IP+1.0; ML-1.8; DV −3.2. The skin was sutured, and the animal was removed from the stereotaxic apparatus and placed on a heating pad for 30 minutes. Normal control mice for the diseased mouse model were injected with a vehicle (0.02% ascorbic acid) instead of 6-OHDA-HCl solution.
(§2) Behavioral experiments were performed 18 days after 6-01-IDA injection, and mice were sacrificed 21 days after 6-01-IDA injection, and histological analysis was performed.
The mouse was placed on a bar with a diameter of 8 mm and a length of 55 cm, and a pole test was performed to measure the time it took for the mouse's four feet to come down to the floor (landing time).

[2] = test system: Parkinson's disease model (6-OHDA model) mice; test: Cylinder test; format: in vivo, C57BL/6 mice; details: 6-OHDA+fexofenadine group; 20 mg/kg orally once a day
Method: as §1, §2

α-synuclein aggregates = test: BiFC-α-syn Venus fluorescence in C. elegans Parkinson's disease model; format: in vivo; details: Venus-αS C. elegans; fexofenadine, 2 days at 20° C.; vs control not treated
Source text: (§3) For this purpose, A C. elegans Parkinson's disease model (Venus-αS) expressing BiFC-α-syn was produced by introducing plasmids that overexpress VN-linked α-synuclein in muscle cells of the pharynx and VC-linked α-synuclein in neurons that form synapses with muscle cells into wild-type Bristol N2 C. elegans purchased from the Caenorhabditis Genetics Center (CGC, University of Minnesota, St. Paul, MN) (Kim D-K et al., (2016). Autophagy. 12(10):1849-1863).

TH-positive neurons = details: 6-OHDA+fexofenadine group; 20 mg/kg orally once a day; 21 days after 6-OHDA injection
Method: as §1, §2

[3] = test system: BIFC-α-syn C. elegans Parkinson's disease model; test: Life-span analysis; format: in vivo
Source text: as §3
For this purpose, eggs laid by adults were grown to the L4 larval stage on NGM plates inoculated with K col. OP50 (CGC) at 20° C. When the L4 stage was reached, they were transferred to NGM plates including […] 5-fluoro-2′-deoxyuridine (Sigma-Aldrich, F0503) to prevent progeny production. The number of living and dead C. elegans was recorded every 1 or 2 days. Worms that burst, were buried or crawled out of the plate were also counted. Survival data were analyzed using OASIS2 (Survival Analysis Online Application for Lifespan Analysis http://sbi.postech.ac.kr/oasis/surv/).

GFAP = GFAP staining in cortex, striatum and substantia nigra, α-synuclein injection model; format: in vivo, C57BL/6 mice; details: PFF-fexofenadine group vs PFF-PBS; 20 mg/kg orally once a day; day 30
Method: The skin was sutured, and the animal was removed from the stereotaxic apparatus and placed on a heating pad for 30 minutes.

[4] = test system: Parkinson's disease model (6-OHDA model) mice; test: Bridge test (acrossing time on a 1 m bar); format: in vivo, C57BL/6 mice; details: 20 mg/kg orally once a day
Method: as §1, §2
In order to test the animal model's sense of balance, a bridge test was performed to measure the time it took to pass from one side to the other side on a 1 m long bar (acrossing time).

Iba-1 positive microglia = test: Microglial (Iba-1) staining in substantia nigra and striatum, 6-OHDA model; format: in vivo, C57BL/6 mice; details: 6-OHDA+fexofenadine group; 20 mg/kg orally once a day; 21 days after 6-OHDA injection
Method: Specifically, 8-week-old C57BL/6 mice (Daehan Biolink, Eumseong, North Chungcheong Province, Korea) were anesthetized by intraperitoneal (i.p.) injection of 200 mg/kg of 2,2,2-tribromoethanol (Sigma-Aldrich), and they were placed in a stereotaxic apparatus (David Kopf Instruments, Tujunga, CA, USA) equipped With a mouse adapter.
Activated microglia were analyzed through staining with anti-Iba-1 antibody (Wako, 019-19741, 1:1,000 dilution). The brain tissue preparation and tissue staining method for this purpose were performed in the same manner as the TH staining method in Example 3-1, and the images were analyzed using an Axio scan. Z1 slide scanner (Carl Zeiss, Germany). The cell number was measured and analyzed as the average value of three sheets of each tissue.

[5] = test system: BIFC-α-syn C. elegans Parkinson's disease model; test: Pharyngeal pumping analysis; format: in vivo
Source text: as §3

[6] = 6-OHDA+fexofenadine group, 18 days after 6-OHDA injection
[7] = normal mice (PBS-fexofenadine group)
[8] = C. elegans wild-type N2 treated with fexofenadine

In the case of `CC(C)(C(=O)O)c1ccc(C(O)CCCN2CCC(C(O)(c3ccccc3)c3ccccc3)CC2)cc1` (stereo not shown) [fexofenadine], the landing time [1, 6] is reported as “about 6 seconds”, the landing time [1, 7] is reported as “approximately 4.5 seconds” and the “motor ability (steps of forepaw opposite the damaged striatum vs undamaged)” value [2] is reported as “restored to the level of the normal mouse control group”. The Venus fluorescence intensity (α-synuclein aggregates) was “significantly reduced”, the “number of TH-positive neurons on the ipsilateral side of the substantia nigra” value (TH-positive neurons) was “recovered to a level similar to that of the normal mouse control group” and the lifespan [3, 8] was “further extended”. The lifespan ([3]; fexofenadine-treated C. elegans Parkinson's disease model) was “about 14 days”, the “GFAP expression in the cortex, striatum and substantia nigra, ipsilateral and contralateral sides” value (GFAP) was “significantly reduced” and the acrossing time [4, 6] was “restored to a level similar to that of the normal mouse control group”. For the same compound, the acrossing time [4, 7] was “improved compared to the normal mouse control group”, the “number of Iba-1 positive microglia in the ipsilateral side of the striatum and substantia nigra” value (Iba-1 positive microglia) was “reduced to a level similar to that of the normal mouse control group” and the pharyngeal pumping ability ([5]; C. elegans Parkinson's disease model, 8 days after fexofenadine treatment) was “restored to a level similar to that of wild-type N2”. For the same compound, the pharyngeal pumping ability [5, 8] was “improves the pharyngeal pumping ability”.
